Assay results from US20260250318A1, “COMPOSITIONS AND METHODS FOR CROSSING THE BLOOD BRAIN BARRIER” (VOYAGER THERAPEUTICS, INC., priority 2022, published 2026).

Legend:
Details in all cases: synthetic library passage 3, intravenous, relative to wild-type AAV9
[1] = test system: brain, spinal cord, and DRG of the NHPs; assay: NGS fold enrichment of synthetic library (passage 3) in NHPs, first cross-species screen; format: in vivo, cynomolgus macaques (Macaca fascicularis)
Summary of the method: (§1)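 Fold enrichment versus wild-type AAV9 was derived by NGS of RT-PCR-amplified RNA from nervous tissue, collected e.g. 28 days after IV dosing […]. The library (passage 3) was given to two NHPs aged 2-4 years and to 6-8-week BALB/c and C57Bl/6 mice (n=3 each).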

[2] = test system: brain; assay: NGS fold enrichment of synthetic library (passage 3) in BALB/c mice, first cross-species screen; format: in vivo
Summary of the method: as §1

[3] = test system: brain; assay: NGS fold enrichment of synthetic library (passage 3) in C57Bl/6 mice, first cross-species screen; format: in vivo
Summary of the method: as §1

[4] = RNA from spinal cord of NHPs, NGS
[5] = RNA from brain of BALB/c mice, NGS
[6] = RNA from brain of C57Bl/6 mice, NGS

In the case of GSGQNQQVGSTVRT, the “Fold enrichment over AAV9 in the brain of NHPs” value ([1]; RNA NGS, brain of NHPs) is reported as 1.124 fold, the “Fold enrichment over AAV9 in the spinal cord of NHPs” value ([1]; RNA NGS, spinal cord of NHPs) is reported as 2.040 fold and the “Fold enrichment over AAV9 in the brain of Mice (BALB/c)” value (“Fold enrichment over AAV9 … (BALB/c)” for short) ([2]; RNA NGS, brain of BALB/c mice) is reported as 0.614 fold. The “Fold enrichment over AAV9 in the brain of Mice (C57Bl/6)” value (shortened to “Fold enrichment over AAV9 … (C57Bl/6)”) ([3]; RNA NGS, brain of C57Bl/6 mice) was 0.918 fold.
In the case of GVVRNHQSGQNQQT, the “Fold enrichment over AAV9 in the brain of NHPs” value ([1]; RNA NGS, brain of NHPs) is reported as 1.116 fold, the “Fold enrichment over AAV9 in the spinal cord of NHPs” value ([1]; RNA NGS, spinal cord of NHPs) is reported as 5.801 fold and the “Fold enrichment over AAV9 … (BALB/c)” value ([2]; RNA NGS, brain of BALB/c mice) is reported as 0.868 fold. The “Fold enrichment over AAV9 … (C57Bl/6)” value ([3]; RNA NGS, brain of C57Bl/6 mice) was 0.899 fold.
GSDQNQQLGYSKQT was tested, and the “Fold enrichment over AAV9 in the brain of NHPs” value ([1]; RNA from brain of NHPs, NGS) was 1.283 fold, the “Fold enrichment over AAV9 in the spinal cord of NHPs” value [1, 4] was 0.000 fold and the “Fold enrichment over AAV9 … (BALB/c)” value [2, 5] was 0.660 fold. For the same sequence, the “Fold enrichment over AAV9 … (C57Bl/6)” value [3, 6] was 0.853 fold.
With GSGYASHVQQNQQT the “Fold enrichment over AAV9 in the brain of NHPs” value ([1]; RNA NGS, brain of NHPs) was 2.146 fold, the “Fold enrichment over AAV9 in the spinal cord of NHPs” value ([1]; RNA NGS, spinal cord of NHPs) was 3.038 fold and the “Fold enrichment over AAV9 … (BALB/c)” value ([2]; RNA NGS, brain of BALB/c mice) was 0.758 fold. The “Fold enrichment over AAV9 … (C57Bl/6)” value ([3]; RNA NGS, brain of C57Bl/6 mice) was 1.157 fold.
GGGTKMDSGQNQQT was tested, and the “Fold enrichment over AAV9 in the brain of NHPs” value ([1]; RNA NGS, brain of NHPs) was 3.034 fold, the “Fold enrichment over AAV9 in the spinal cord of NHPs” value ([1]; RNA NGS, spinal cord of NHPs) was 0.000 fold and the “Fold enrichment over AAV9 … (BALB/c)” value ([2]; RNA NGS, brain of BALB/c mice) was 0.297 fold. The “Fold enrichment over AAV9 … (C57Bl/6)” value ([3]; RNA NGS, brain of C57Bl/6 mice) was 0.733 fold.
In the case of GGITWTDSGQNQQT, the “Fold enrichment over AAV9 in the brain of NHPs” value ([1]; RNA NGS, brain of NHPs) is reported as 1.462 fold, the “Fold enrichment over AAV9 in the spinal cord of NHPs” value ([1]; RNA NGS, spinal cord of NHPs) is reported as 4.535 fold and the “Fold enrichment over AAV9 … (BALB/c)” value ([2]; RNA NGS, brain of BALB/c mice) is reported as 0.468 fold. For the same sequence, the “Fold enrichment over AAV9 … (C57Bl/6)” value ([3]; RNA NGS, brain of C57Bl/6 mice) was 1.472 fold.
GNGHSMRPNQNQQT was tested, and the “Fold enrichment over AAV9 in the brain of NHPs” value ([1]; RNA NGS, brain of NHPs) was 1.560 fold, the “Fold enrichment over AAV9 in the spinal cord of NHPs” value ([1]; RNA NGS, spinal cord of NHPs) was 2.341 fold and the “Fold enrichment over AAV9 … (BALB/c)” value ([2]; RNA NGS, brain of BALB/c mice) was 0.376 fold. For the same sequence, the “Fold enrichment over AAV9 … (C57Bl/6)” value ([3]; RNA NGS, brain of C57Bl/6 mice) was 0.693 fold.
In the case of GIPSIRESGQNQQT, the “Fold enrichment over AAV9 in the brain of NHPs” value ([1]; RNA from brain of NHPs, NGS) is reported as 1.282 fold, the “Fold enrichment over AAV9 in the spinal cord of NHPs” value [1, 4] is reported as 0.166 fold and the “Fold enrichment over AAV9 … (BALB/c)” value [2, 5] is reported as 0.254 fold. For the same sequence, the “Fold enrichment over AAV9 … (C57Bl/6)” value [3, 6] was 0.484 fold.
With GSGMRQAGVQNQQT the “Fold enrichment over AAV9 in the brain of NHPs” value ([1]; RNA NGS, brain of NHPs) was 1.032 fold, the “Fold enrichment over AAV9 in the spinal cord of NHPs” value ([1]; RNA NGS, spinal cord of NHPs) was 0.811 fold and the “Fold enrichment over AAV9 … (BALB/c)” value ([2]; RNA NGS, brain of BALB/c mice) was 0.775 fold. The “Fold enrichment over AAV9 … (C57Bl/6)” value ([3]; RNA NGS, brain of C57Bl/6 mice) was 0.736 fold.
For GSLSSHGVGQNQQT, the “Fold enrichment over AAV9 in the brain of NHPs” value ([1]; RNA NGS, brain of NHPs) was 1.911 fold, the “Fold enrichment over AAV9 in the spinal cord of NHPs” value ([1]; RNA NGS, spinal cord of NHPs) was 7.498 fold and the “Fold enrichment over AAV9 … (BALB/c)” value ([2]; RNA NGS, brain of BALB/c mice) was 0.804 fold. For the same sequence, the “Fold enrichment over AAV9 … (C57Bl/6)” value ([3]; RNA NGS, brain of C57Bl/6 mice) was 1.218 fold.
In the case of GSGYKDTYGQNQQT, the “Fold enrichment over AAV9 in the brain of NHPs” value ([1]; RNA NGS, brain of NHPs) is reported as 1.091 fold, the “Fold enrichment over AAV9 in the spinal cord of NHPs” value ([1]; RNA NGS, spinal cord of NHPs) is reported as 0.854 fold and the “Fold enrichment over AAV9 … (BALB/c)” value ([2]; RNA NGS, brain of BALB/c mice) is reported as 0.448 fold. The “Fold enrichment over AAV9 … (C57Bl/6)” value ([3]; RNA NGS, brain of C57Bl/6 mice) was 0.717 fold.
GSTGIVSSGQNQQT was tested, and the “Fold enrichment over AAV9 in the brain of NHPs” value ([1]; RNA NGS, brain of NHPs) was 1.570 fold, the “Fold enrichment over AAV9 in the spinal cord of NHPs” value ([1]; RNA NGS, spinal cord of NHPs) was 0.927 fold and the “Fold enrichment over AAV9 … (BALB/c)” value ([2]; RNA NGS, brain of BALB/c mice) was 1.046 fold. For the same sequence, the “Fold enrichment over AAV9 … (C57Bl/6)” value ([3]; RNA NGS, brain of C57Bl/6 mice) was 2.141 fold.
In the case of GSGQNQQPPLATRT, the “Fold enrichment over AAV9 in the brain of NHPs” value ([1]; RNA from brain of NHPs, NGS) is reported as 1.386 fold, the “Fold enrichment over AAV9 in the spinal cord of NHPs” value [1, 4] is reported as 2.295 fold and the “Fold enrichment over AAV9 … (BALB/c)” value [2, 5] is reported as 0.287 fold. For the same sequence, the “Fold enrichment over AAV9 … (C57Bl/6)” value [3, 6] was 0.593 fold.
For GSGQNQQTVPTRQT, the “Fold enrichment over AAV9 in the brain of NHPs” value ([1]; RNA NGS, brain of NHPs) was 1.040 fold, the “Fold enrichment over AAV9 in the spinal cord of NHPs” value ([1]; RNA NGS, spinal cord of NHPs) was 1.207 fold and the “Fold enrichment over AAV9 … (BALB/c)” value ([2]; RNA NGS, brain of BALB/c mice) was 0.138 fold. The “Fold enrichment over AAV9 … (C57Bl/6)” value ([3]; RNA NGS, brain of C57Bl/6 mice) was 0.629 fold.
In the case of GSGSSSRPYQNQQT, the “Fold enrichment over AAV9 in the brain of NHPs” value ([1]; RNA NGS, brain of NHPs) is reported as 1.934 fold, the “Fold enrichment over AAV9 in the spinal cord of NHPs” value ([1]; RNA NGS, spinal cord of NHPs) is reported as 3.823 fold and the “Fold enrichment over AAV9 … (BALB/c)” value ([2]; RNA NGS, brain of BALB/c mice) is reported as 0.496 fold. For the same sequence, the “Fold enrichment over AAV9 … (C57Bl/6)” value ([3]; RNA NGS, brain of C57Bl/6 mice) was 0.962 fold.
In the case of GSRTYQVSGQNQQT, the “Fold enrichment over AAV9 in the brain of NHPs” value ([1]; RNA from brain of NHPs, NGS) is reported as 1.164 fold, the “Fold enrichment over AAV9 in the spinal cord of NHPs” value [1, 4] is reported as 1.853 fold and the “Fold enrichment over AAV9 … (BALB/c)” value [2, 5] is reported as 0.641 fold. For the same sequence, the “Fold enrichment over AAV9 … (C57Bl/6)” value [3, 6] was 0.638 fold.
